# Laboratory results taken from patent publication US20250197372A1 (priority 2020, published 2025).
# Biological target: T1, recombinant alpha-glucosidase I (human full-length glucosidase I, Glu 1) (Homo sapiens, UniProt Q13724)
# T1 construct: 6-His (C); made in house; host or cells: HEK-293T cells transduced with BacMam virus (virus raised in Sf9)
# T1 sequence (Q13724 1-837): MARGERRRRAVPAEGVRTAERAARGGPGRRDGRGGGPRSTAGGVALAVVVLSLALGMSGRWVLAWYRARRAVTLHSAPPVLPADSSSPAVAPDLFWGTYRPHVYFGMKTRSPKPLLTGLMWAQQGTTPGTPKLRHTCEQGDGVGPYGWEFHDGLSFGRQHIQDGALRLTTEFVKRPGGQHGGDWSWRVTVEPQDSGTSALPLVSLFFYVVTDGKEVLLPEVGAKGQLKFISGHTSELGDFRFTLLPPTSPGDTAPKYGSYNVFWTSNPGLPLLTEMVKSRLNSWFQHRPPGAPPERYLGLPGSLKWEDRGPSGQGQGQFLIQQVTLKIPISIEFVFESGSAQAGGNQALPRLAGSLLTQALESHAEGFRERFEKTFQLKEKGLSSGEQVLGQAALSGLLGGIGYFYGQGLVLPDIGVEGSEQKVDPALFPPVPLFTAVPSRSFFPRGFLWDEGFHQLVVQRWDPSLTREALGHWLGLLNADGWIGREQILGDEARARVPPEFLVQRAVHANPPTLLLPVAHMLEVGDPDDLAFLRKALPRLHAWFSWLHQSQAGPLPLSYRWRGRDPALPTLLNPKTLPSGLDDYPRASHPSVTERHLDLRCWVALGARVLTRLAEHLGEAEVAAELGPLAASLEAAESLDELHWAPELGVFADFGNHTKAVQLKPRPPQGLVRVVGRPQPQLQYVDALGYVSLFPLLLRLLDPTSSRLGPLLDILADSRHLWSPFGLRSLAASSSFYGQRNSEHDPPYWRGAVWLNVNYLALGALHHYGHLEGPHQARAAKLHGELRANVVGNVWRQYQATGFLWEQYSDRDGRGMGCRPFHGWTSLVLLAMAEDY
# Test: Alpha-glucosidase I assay (Amplex Red glucose detection, synthetic trisaccharide substrate)
# Format: biochemical
# Conditions: not given
# Source text: Preparation of Human Full-length Glucosidase I: The amino acid sequence for human full-length glucosidase I was obtained from UniProt (Q13724). […] The entry vector was cloned into Kemp Proteins' BacMam Destination vector and transformed into chemically competent DH10Bac E. coli cells to produce recombinant glucosidase I bacmids. Bacmid isolates were obtained following two rounds of blue-white screening and they were transfected into Sf9 cells cultivated in serum-free medium (Thermo Fisher Scientific). Four days post-transfection the culture supernatants containing virus were harvested and filter sterilized. […] A multiplicity of infection (MOI, ratio of virus to cells) of 4 was selected. Soluble glucosidase I was detected by anti-His western blots in the soluble cell extract following extraction with 1% V/V NP40 for 30 minutes at 0° C. Productions and purifications of glucosidase I were carried out at scales ranging from 1-liter to 10-liters. […] In another example production at the 10-liter scale was performed in stirred-tank bioreactors at 27° C. and 80 rpm with dissolved oxygen level at 50% of oxygen in air and pH between 7.0 and 7.2. Cells were transduced at MOI of 4 and the cell pellet was harvested at 48 hours post-transduction using centrifugation.
# The pellet from a 10-liter culture was lysed by resuspending the pellet into 1-liter of 50 mM NaH2PO4—H2O+300 mM NaCl+10 mM Imidazole+1 mM PMSF+1% V/V NP40 pH 8. The suspension was incubated on ice for 30 minutes and clarified at 500×g and 4° C. The supernatant was collected and clarified at 20,000×g for 30 minutes at 4° C. and the supernatant was collected and filtered through a 0.2 micron filter. […] The column was washed with 20 column volumes (CV) of 50 mM NaH2PO4-H2O+300 mM NaCl+10 mM Imidazole pH 8 and eluted using a linear gradient of 0-60% 50 mM NaH2PO4-H2O+300 mM NaCl+500 mM Imidazole pH 8 over 90 minutes. at 5 mL per minute. Fractions (25 mL) were collected and analyzed by SDS PAGE and Western Blot (reducing anti-His). Fractions containing purified glucosidase I were pooled and dialyzed into storage buffer (20 mM Tris+300 mM NaCl+50 mM L-arginine+10 mM EDTA+0.01% V/V Tween 80 pH 7.5). The final material was filter sterilized and stored at 4° C. and the working dilution confirmed by a use-test in the indicated assay conditions prior to use.
# Alpha-glucosidase I Assay: The assay was performed by incubating recombinant alpha-glucosidase I enzyme with multiple dilutions of test compounds for 60 minutes at 37° C. A synthetic trisaccharide substrate analog was then introduced to the mixture for 90 minutes at 37° C. The reaction was then stopped with 1.5M Tris (pH 8). In the absence of inhibition, the terminal glucose of the substrate was hydrolyzed by the enzyme. The D-glucose product was detected using Amplex Red Glucose/Glucose Oxidase Assay Kit (Invitrogen) following the manufacturer's directions where glucose oxidase reacts with D-glucose to form D-gluconolactone and H2O2 which then reacts with the Amplex Red reagent to generate a red-fluorescent oxidation product (560 nm, excitation; 590 nm, emission). […] Percent inhibition is plotted as a function of concentration for each compound, compared to control reactions. The IC50 was determined using a 4-PL curve fit and serves as a measure of relative inhibitory activity of each test compound (see Table 3).
row,SMILES,IC50 [nM]
1,"OC[C@@H]1[C@@H](O)[C@H](O)[C@@H](O)CN1CCc1ccc(CCNc2cc(Cl)cc(-c3cccnn3)c2)cc1 [Compound 1163, (2R,3R,4R,5S)-1-{2-[4-(2-{[3-chloro-5-(pyridazin-3-yl)phenyl]amino}ethyl)phenyl]ethyl}-2-(hydroxymethyl)piperidine-3,4,5-triol]",211
2,"OC[C@@H]1[C@@H](O)[C@H](O)[C@@H](O)CN1CCCCCCNc1cc(-c2cccnn2)cc(C2CC2)c1 [Compound 1008, (2R,3R,4R,5S)-1-(6-{[3-cyclopropyl-5-(pyridazin-3-yl)phenyl]amino}hexyl)-2-(hydroxymethyl)piperidine-3,4,5-triol]",103
3,"COCCc1ccc(CCCCCN2C[C@H](O)[C@@H](O)[C@H](O)[C@H]2CO)cc1 [Compound 1307, (2R,3R,4R,5S)-2-(hydroxymethyl)-1-{5-[4-(2-methoxyethyl)phenyl]pentyl}piperidine-3,4,5-triol]",1160
4,"N#Cc1cc(NCc2cccc(CN3C[C@H](O)[C@@H](O)[C@H](O)[C@H]3CO)c2)cc(C2=COCCO2)c1 [Compound 1044, 3-(5,6-dihydro-1,4-dioxin-2-yl)-5-{[(3-{[(2R,3R,4R,5S)-3,4,5-trihydroxy-2-(hydroxymethyl)piperidin-1-yl]methyl}phenyl)methyl]amino}benzonitrile]",3
5,"CS(=O)(=O)Nc1ccc(NCCCCCCN2C[C@H](O)[C@@H](O)[C@H](O)[C@H]2CO)c([N+](=O)[O-])c1 [Compound 1300, N-[3-nitro-4-({6-[(2R,3R,4R,5S)-3,4,5-trihydroxy-2-(hydroxy-methyl)piperidin-1-yl]hexyl}amino)phenyl]methanesulfonamide]",157
6,"Cc1cc(NCc2cccc(CN3C[C@H](O)[C@@H](O)[C@H](O)[C@H]3CO)n2)cc(-c2ccc[nH]2)c1 [Compound 1335, (2R,3R,4R,5S)-2-(hydroxymethyl)-1-{[6-({[3-methyl-5-(1H-pyrrol-2-yl)phenyl]amino}methyl)pyridin-2-yl]methyl}piperidine-3,4,5-triol]",966

# Same assay, conditions: Glucosidase 1; read-out: Glu 1 IC50
row,SMILES,IC50 [nM]
1,"COc1cc(NCCc2ccc(CCN3C[C@H](O)[C@@H](O)[C@H](O)[C@H]3CO)cc2)cc(C2=COCCO2)c1 [Compound 1155, (2R,3R,4R,5S)-1-{2-[4-(2-{[3-(5,6-dihydro-1,4-dioxin-2-yl)-5-methoxyphenyl]amino}ethyl)phenyl]ethyl}-2-(hydroxymethyl)piperidine-3,4,5-triol]",1250
2,"OC[C@@H]1[C@@H](O)[C@H](O)[C@@H](O)CN1CCc1ccc(CCNc2cc(Cl)cc(-c3ccco3)c2)cc1 [Compound 1159, (2R,3R,4R,5S)-1-{2-[4-(2-{[3-chloro-5-(furan-2-yl)phenyl]amino}ethyl)phenyl]ethyl}-2-(hydroxymethyl)piperidine-3,4,5-triol]",183
3,"COc1cc(NCCc2ccc(CCN3C[C@H](O)[C@@H](O)[C@H](O)[C@H]3CO)cc2)cc(C2=CCOCC2)c1 [Compound 1154, (2R,3R,4R,5S)-1-{2-[4-(2-{[3-(3,6-dihydro-2H-pyran-4-yl)-5-methoxyphenyl]amino}ethyl)phenyl]ethyl}-2-(hydroxymethyl)piperidine-3,4,5-triol]",919
4,"CCCc1nc(-c2cc(Cl)cc(NCCc3ccc(CCN4C[C@H](O)[C@@H](O)[C@H](O)[C@H]4CO)cc3)c2)no1 [Compound 1123, (2R,3R,4R,5S)-1-{2-[4-(2-{[3-chloro-5-(5-propyl-1,2,4-oxadiazol-3-yl)phenyl]amino}ethyl)phenyl]ethyl}-2-(hydroxymethyl)piperidine-3,4,5-triol]",1360
5,"N#Cc1cc(Cl)cc(NCCc2ccc(CCN3C[C@H](O)[C@@H](O)[C@H](O)[C@H]3CO)cc2)c1 [Compound 1134, 3-chloro-5-{[2-(4-{2-[(2R,3R,4R,5S)-3,4,5-trihydroxy-2-(hydroxymethyl)piperidin-1-yl]ethyl}phenyl)ethyl]amino}benzonitrile]",640
6,"[N-]=[N+]=Nc1ccc(NCCc2ccc(CCN3C[C@@H](O)[C@H](O)[C@@H](O)[C@@H]3CO)c3ccccc23)c([N+](=O)[O-])c1 (stereo in doubt) [Compound 1178, (2S,3S,4S,5R)-1-[2-(4-{2-[(4-azido-2-nitrophenyl)amino]ethyl}naphthalen-1-yl)ethyl]-2-(hydroxymethyl)piperidine-3,4,5-triol]",2730
7,"COc1cc(NCCCCCCN2C[C@H](O)[C@@H](O)[C@H](O)[C@H]2CO)cc(C2=CCCO2)c1 [Compound 1147, (2R,3R,4R,5S)-1-(6-{[3-(4,5-dihydrofuran-2-yl)-5-methoxyphenyl]amino}hexyl)-2-(hydroxymethyl)piperidine-3,4,5-triol]",263
8,"[N-]=[N+]=Nc1ccc(NCc2cccc(CN3C[C@H](O)[C@@H](O)[C@H](O)[C@H]3CO)c2)c([N+](=O)[O-])c1 [Compound 1169, (2R,3R,4R,5S)-1-[(3-{[(4-azido-2-nitrophenyl)amino]methyl}phenyl)methyl]-2-(hydroxymethyl)piperidine-3,4,5-triol]",68
9,"[N-]=[N+]=Nc1ccc(NCCc2ccc(CCN3C[C@H](O)[C@@H](O)[C@H](O)[C@H]3CO)c3c2OCCO3)c([N+](=O)[O-])c1 [Compound 1173, (2R,3R,4R,5S)-1-[2-(8-{2-[(4-azido-2-nitrophenyl)amino]ethyl}-2,3-dihydro-1,4-benzodioxin-5-yl)ethyl]-2-(hydroxymethyl)piperidine-3,4,5-triol]",157
10,"COC(OC)c1cc(NCCCCCCN2C[C@H](O)[C@@H](O)[C@H](O)[C@H]2CO)cc(-c2ncccn2)c1 [Compound 1124, (2R,3R,4R,5S)-1-(6-{[3-(dimethoxymethyl)-5-(pyrimidin-2-yl)phenyl]amino}hexyl)-2-(hydroxymethyl)piperidine-3,4,5-triol]",513
11,"OC[C@@H]1[C@@H](O)[C@H](O)[C@@H](O)CN1CCCCCCNc1cc(-c2ncccn2)cc(C2CC2)c1 [Compound 1009, (2R,3R,4R,5S)-1-(6-{[3-cyclopropyl-5-(pyrimidin-2-yl)phenyl]amino}hexyl)-2-(hydroxymethyl)piperidine-3,4,5-triol]",163
12,"COc1cc(NCCc2ccc(CCN3C[C@H](O)[C@@H](O)[C@H](O)[C@H]3CO)cc2)cc(-c2ncccn2)c1 [Compound 1156, (2R,3R,4R,5S)-2-(hydroxymethyl)-1-{2-[4-(2-{[3-methoxy-5-(pyrimidin-2-yl)phenyl]amino}ethyl)phenyl]ethyl}piperidine-3,4,5-triol]",1270
13,"CC(=O)Nc1cc(NCCCCCCN2C[C@H](O)[C@@H](O)[C@H](O)[C@H]2CO)cc(-c2ncccn2)c1 [Compound 1125, N-[3-(pyrimidin-2-yl)-5-({6-[(2R,3R,4R,5S)-3,4,5-trihydroxy-2-(hydroxymethyl)piperidin-1-yl]hexyl}amino)phenyl]acetamide]",337
